Data on 18 compounds can be found in US20230150946A1, “HETEROCYCLE CONTAINING STAT INHIBITORS AND COMPOSITIONS” (JANPIX LIMITED, priority 2020, published 2023).

Like-named read-outs stand apart in the source and are kept apart here.

The subject of one data set is MV4-11 cells. Put plainly: MV4-11 Cell Cytotoxicity Assay (CellTiter-Blue, 72 h). The format is cell-based, human. The conditions noted are these: 72 h at 37° C. Here is the method:
In some embodiments, the potency of the STAT5 inhibitors are evaluated by an in vitro assay such as MV4-11 Cell Cytotoxicity Assay. MV4-11 cells were grown in Iscove's Modified Dulbecco's Medium (IMDM) supplemented with 10% fetal bovine serum (FBS). 10,000 cells were plated per well in 96-well flat-bottom sterile culture plates with low-evaporation lids. After 24 h, inhibitors and a vehicle control (0.5% DMSO) were added and the cells were incubated for 72 h at 37° C. in 5% CO2. Inhibitors were examined in triplicate at a maximal concentration of 50 μM, followed by 1:2 dilutions in subsequent wells (25, 12.5, 6.25, 3.125, 1.5625, 0.78125, 0.390625, 0.195313 and 0.097656 μM). After 72 h, the wells were treated with CellTiter-Blue® (20 μL/well), and the plates were incubated using standard cell culture conditions for 1 hour. Fluorescence was measured at 560/590 nm.

Data set [1] is described as follows: Reactivity Profiling with Glutathione (GSH), HPLC. The format is in vitro ADME. The settings on record: 5 mM glutathione (GSH) in cell culture medium, 25 μM inhibitor, IMDM 10% FBS, 0.5% DMSO, 25° C., read-out: T1/2-GSH. On the procedure: In some embodiments, metabolic stability of the compounds are evaluated according to their reactivity profiles with GSH.
3.5 μL of 5 mM stocking solution of the inhibitors in DMSO was added to 697.5 μL of Iscove's Modified Dulbecco's Medium (IMDM) supplemented with 10% FBS and antibiotic antimycotic solution, with 5 mM glutathione to afford a final concentration of 25 μM inhibitor with 0.5% DMSO. The solution was then immediately placed in the sample tray at 25° C. Sample was analyzed at pre-defined intervals, typically every 1.5 hours, for up to four injections, by HPLC, included at time zero, without further pre-treatment. For each inhibitor, its peak is integrated at different time points and compared to the time zero injection in order to obtain a percentage remaining. Half-life is calculated according to a first order reaction kinetic taking into account those time points for which remaining percentage of inhibitor is above 40%, using the formula: t½=Ln(2)/k, where k is the slope of the linear plot of Ln[Inhibitor] vs time, according to the formula: Ln[A]=Ln[A]0−kt, where [A] is the value resulting from the integration at each time point, [A]0 the value at time zero, and t the time. For each inhibitor, both replicates are averaged and the resulting t½ reported. Selective reactivity against GSH in particular is confirmed by incubation of the inhibitor in the same solution without the presence of GSH, and single analysis after a time longer than the latest time point analyzed for the samples with GSH.

Where [2] appears, read: Homo sapiens, Table 3, read-out: IC50-MV-4-11.

Broadly, the IC50 is the point on the concentration scale where inhibition reaches its midpoint. Turning to `CC(C)(C)c1cc(CN(C(=O)CN(Cc2ccc(Cl)cc2)S(=O)(=O)c2c(F)c(F)c(F)c(F)c2F)c2cnc(N)nc2)cc(C2CC2)c1` [Compound 1006, N-(2-aminopyrimidin-5-yl)-N-(3-(tert-butyl)-5-cyclopropylbenzyl)-2-(N-(4-chlorobenzyl)-(2,3,4,5,6-pentafluorophenyl)sulfonamido)acetamide], the IC50 in the data set on MV4-11 cells (setting [2]) is 1000 to 3160 nM. Moreover, in data set [1], the half-life at 25 μM is 554 to 100000 min.
Regarding `CC(C)(C)c1cc(CN(C(=O)CN(Cc2cnccc2C(F)(F)F)S(=O)(=O)c2c(F)c(F)c(F)c(F)c2F)c2cnc(N)nc2)cc(C2CC2)c1` [Compound 1017, N-(2-aminopyrimidin-5-yl)-N-(3-(tert-butyl)-5-cyclopropylbenzyl)-2-(N-((4-(trifluoromethyl)pyridin-3-yl)methyl)-(2,3,4,5,6-pentafluorophenyl)sulfonamido)acetamide], the IC50 in the data set on MV4-11 cells (setting [2]) fell in the range of 0.01 to 1000 nM.
Consider `CNc1c(NCCN(Cc2cc(C3CC3)cc(C(C)(C)C)c2)C(=O)CN(Cc2ccccc2F)S(=O)(=O)c2c(F)c(F)c(F)c(F)c2F)c(=O)c1=O` [Compound 1013, N-(3-(tert-butyl)-5-cyclopropylbenzyl)-N-(2-((2-(methylamino)-3,4-dioxocyclobut-1-en-1-yl)amino)ethyl)-2-(N-(2-fluorobenzyl)-(2,3,4,5,6-pentafluorophenyl)sulfonamido)acetamide], for which the half-inhibitory concentration (IC50) in the data set with MV4-11 cells (setting [2]) fell in the range of 0.01 to 1000 nM. Also, the half-life at 25 μM in data set [1] was 554 to 100000 min.
For `CC(C)(C)c1cc(CN(C(=O)CN(Cc2ccc(Cl)cc2)S(=O)(=O)c2c(F)c(F)c(F)c(F)c2F)C2=CNC(=O)NC2)cc(C2CC2)c1` [Compound 1018, N-(3-(tert-butyl)-5-cyclopropylbenzyl)-2-(N-(4-chlorobenzyl)-(2,3,4,5,6-pentafluorophenyl)sulfonamido)-N-(2-oxo-1,2,3,4-tetrahydropyrimidin-5-yl)acetamide], the IC50 with MV4-11 cells (Homo sapiens, Table 4, read-out: IC50-MV-4-11) was in the range of 1000 to 3160 nM.
Consider “N-(3-(tert-butyl)-5- cyclopropylbenzyl)-2-(N-(4- chlorobenzyl)-(2,3,4,5,6- pentafluorophenyl) sulfonamido)-N-(2- methoxypyrimidin-5-yl) acetamide [Compound 1003]”, for which the IC50 in the data set on MV4-11 cells (Table 3, read-out: IC50-MV-4-11) lay in the range of 1000 to 3160 nM.
Consider `CC(C)(C)c1cc(CN(C(=O)CN(Cc2ccc(Cl)cc2)S(=O)(=O)c2c(F)c(F)c(F)c(F)c2F)c2ccc(O)nc2)cc(C2CC2)c1` [Compound 1002, N-(3-(tert-butyl)-5-cyclopropylbenzyl)-2-(N-(4-chlorobenzyl)-(2,3,4,5,6-pentafluorophenyl)sulfonamido)-N-(6-hydroxypyridin-3-yl) acetamide], for which the IC50 in the data set with MV4-11 cells (setting [2]) was 1000 to 3160 nM. The half-life at 25 μM in data set [1] is 554 to 100000 min.
For `CN(C)c1c(NCCN(Cc2cc(C3CC3)cc(C(C)(C)C)c2)C(=O)CN(Cc2cnccc2C(F)(F)F)S(=O)(=O)c2c(F)c(F)c(F)c(F)c2F)c(=O)c1=O` [Compound 1012, N-(3-(tert-butyl)-5-cyclopropylbenzyl)-N-(2-((2-(dimethylamino)-3,4-dioxocyclobut-1-en-1-yl)amino)ethyl)-2-(N-((4-(trifluoromethyl)pyridin-3-yl)methyl)-(2,3,4,5,6-pentafluorophenyl)sulfonamido)acetamide], in that order: 0.01 to 1000 nM and 247 to 554 min.
As for `CC(C)(C)c1cc(CN(C(=O)CN(Cc2ccccc2F)S(=O)(=O)c2c(F)c(F)c(F)c(F)c2F)c2ccc(N)nc2)cc(C2CC2)c1` [Compound 1008, N-(6-aminopyridin-3-yl)-N-(3-(tert-butyl)-5-cyclopropylbenzyl)-2-(N-(2-fluorobenzyl)-(2,3,4,5,6-pentafluorophenyl)sulfonamido)acetamide], the IC50 in the data set with MV4-11 cells (setting [2]) lay within 1000 to 3160 nM.
Turning to `CC(C)(C)c1cc(CN(C(=O)CN(Cc2ccc(Cl)cc2)S(=O)(=O)c2c(F)c(F)c(F)c(F)c2F)c2ccc(N)nc2)cc(C2CC2)c1` [Compound 1007, N-(6-aminopyridin-3-yl)-N-(3-(tert-butyl)-5-cyclopropylbenzyl)-2-(N-(4-chlorobenzyl)-(2,3,4,5,6-pentafluorophenyl)sulfonamido)acetamide], the IC50 with MV4-11 cells (setting [2]) was in the range of 1000 to 3160 nM.
Still for that read-out and setting: then `COc1ccc(N(Cc2cc(C3CC3)cc(C(C)(C)C)c2)C(=O)CN(Cc2ccc(Cl)cc2)S(=O)(=O)c2c(F)c(F)c(F)c(F)c2F)cn1` [Compound 1005, N-(3-(tert-butyl)-5-cyclopropylbenzyl)-2-(N-(4-chlorobenzyl)-(2,3,4,5,6-pentafluorophenyl)sulfonamido)-N-(6-methoxypyridin-3-yl) acetamide], with 3160 to 100000 nM.
With `CN(C)c1c(NCCN(Cc2cc(C3CC3)cc(C(C)(C)C)c2)C(=O)CN(Cc2ccccc2F)S(=O)(=O)c2c(F)c(F)c(F)c(F)c2F)c(=O)c1=O` [Compound 1010, N-(3-(tert-butyl)-5-cyclopropylbenzyl)-N-(2-((2-(dimethylamino)-3,4-dioxocyclobut-1-en-1-yl)amino)ethyl)-2-(N-(2-fluorobenzyl)-(2,3,4,5,6-pentafluorophenyl)sulfonamido)acetamide], the IC50 in the data set with MV4-11 cells (setting [2]) lay within 0.01 to 1000 nM. Further, the half-life at 25 μM in data set [1] lay in the range of 554 to 100000 min.
On to `CC(C)(C)c1cc(CN(C(=O)CN(Cc2ccccc2F)S(=O)(=O)c2c(F)c(F)c(F)c(F)c2F)c2cnc(N)nc2)cc(C2CC2)c1` [Compound 1009, N-(2-aminopyrimidin-5-yl)-N-(3-(tert-butyl)-5-cyclopropylbenzyl)-2-(N-(2-fluorobenzyl)-(2,3,4,5,6-pentafluorophenyl)sulfonamido)acetamide], for which the half-maximal inhibitory concentration (IC50) with MV4-11 cells (setting [2]) lay in the range of 0.01 to 1000 nM. The half-life at 25 μM in data set [1] was 247 to 554 min.
Take `CN(C)c1c(N(C)CCN(Cc2cc(C3CC3)cc(C(C)(C)C)c2)C(=O)CN(Cc2ccccc2F)S(=O)(=O)c2c(F)c(F)c(F)c(F)c2F)c(=O)c1=O` [Compound 1014, N-(3-(tert-butyl)-5-cyclopropylbenzyl)-N-(2-((2-(dimethylamino)-3,4-dioxocyclobut-1-en-1-yl) (methyl)amino)ethyl)-2-(N-(2-fluorobenzyl)-(2,3,4,5,6-pentafluorophenyl)sulfonamido)acetamide]: in the data set on MV4-11 cells (setting [2]), the 50% inhibitory concentration (IC50) was 0.01 to 1000 nM. Moreover, in data set [1], the half-life at 25 μM lay within 554 to 100000 min.
Turning to `CN(C)c1c(NCCCN(Cc2cc(C3CC3)cc(C(C)(C)C)c2)C(=O)CN(Cc2ccccc2F)S(=O)(=O)c2c(F)c(F)c(F)c(F)c2F)c(=O)c1=O` [Compound 1015, N-(3-(tert-butyl)-5-cyclopropylbenzyl)-N-(3-((2-(dimethylamino)-3,4-dioxocyclobut-1-en-1-yl)amino)propyl)-2-(N-(2-fluorobenzyl)-(2,3,4,5,6-pentafluorophenyl)sulfonamido)acetamide], the IC50 in the data set with MV4-11 cells (setting [2]) fell in the range of 0.01 to 1000 nM.
Same read-out and setting: then `CNc1c(N(C)CCN(Cc2cc(C3CC3)cc(C(C)(C)C)c2)C(=O)CN(Cc2ccccc2F)S(=O)(=O)c2c(F)c(F)c(F)c(F)c2F)c(=O)c1=O` [Compound 1016, N-(3-(tert-butyl)-5-cyclopropylbenzyl)-N-(2-(methyl(2-(methylamino)-3,4-dioxocyclobut-1-en-1-yl)amino)ethyl)-2-(N-(2-fluorobenzyl)-(2,3,4,5,6-pentafluorophenyl)sulfonamido)acetamide], with 0.01 to 1000 nM; and `CN(C)c1c(NCCN(Cc2cc(C3CC3)cc(C(C)(C)C)c2)C(=O)CN(Cc2c(F)cc(F)cc2F)S(=O)(=O)c2c(F)c(F)c(F)c(F)c2F)c(=O)c1=O` [Compound 1011, N-(3-(tert-butyl)-5-cyclopropylbenzyl)-N-(2-((2-(dimethylamino)-3,4-dioxocyclobut-1-en-1-yl)amino)ethyl)-2-(N-(2,4,6-trifluorobenzyl)-(2,3,4,5,6-pentafluorophenyl)sulfonamido)acetamide], with 0.01 to 1000 nM; and `CC(C)(C)c1cc(CN(C(=O)CN(Cc2ccc(Cl)cc2)S(=O)(=O)c2c(F)c(F)c(F)c(F)c2F)c2cccnc2)cc(C2CC2)c1` [Compound 1001, N-(3-(tert-butyl)-5-cyclopropylbenzyl)-2-(N-(4-chlorobenzyl)-(2,3,4,5,6-pentafluorophenyl)sulfonamido)-N-(pyridin-3-yl) acetamide], with 1000 to 3160 nM.
On to `CC(C)(C)c1cc(CN(C(=O)CN(Cc2ccc(Cl)cc2)S(=O)(=O)c2c(F)c(F)c(F)c(F)c2F)c2ccc(C(=O)O)nc2)cc(C2CC2)c1` [Compound 1004, 5-(N-(3-(tert-butyl)-5-cyclopropylbenzyl)-2-(N-(4-chlorobenzyl)-(2,3,4,5,6-pentafluorophenyl)sulfonamido)acetamido) picolinic acid], for which, in the data set with MV4-11 cells (setting [2]), the IC50 was 3160 to 100000 nM.
